Experimental data published in US20250049809A1, “INHIBITORS OF MUTANT IDH1 AND IDH2” (Board of Regents, The University of Texas System, priority 2023, published 2025).
Where two headings read alike, the source gives them in different places.

How the values were obtained:
[1] = rcm bond, DCE, 60.0 °C
U87 IDH1R132H = U87 IDH1R132H (Homo sapiens (Human), UniProt O75874, R132H); test: U87 IDH1 R132H 2-HG cellular assay; format: cell-based; settings: extracellular 2HG, 24 h treatment, IDH1 mutant-U-87 isogenic cell line
Description: The IDH1 mutant-U-87 isogenic cell line (ATCC HTB-14IG) used to test cellular inhibition is a glioma IDH1R132H mutant isogenic line derived from the parental U-87MG cell line. These cells are maintained in EMEM (ATCC 30-2003) culture media with 10% FBS and 10 U/mL Penicillin-Streptomycin. Twelve thousand cells are plated in polystyrene 384 well cell culture plates (Greiner Bio-One 781091) (12,000 cells/well) approximately 18 hours before compound treatment. Immediately before treatment, the cells are washed twice with PBS, followed by culture media replenishing. Cells are then treated with different concentrations of test compounds (5 μM to 0.3 pM) for 24 h. Extracellular 2HG levels are measured from cell culture media. For analyte extraction, 30 μL of culture media is transferred to 120 uL 100% acetonitrile in a deep 384 well plate and mixed well, followed by 5 min centrifugation at 3700 rpm at room temperature. 100 μL of supernatant is transferred to a flat bottom 384 well plate. Samples are run on the Agilent RapidFire-Mass Spectrometry instrument to detect 2HG levels. The samples from each well were aspirated for 600 ms and loaded onto a HILIC solid-phase extraction cartridge (Agilent) followed by a wash step for 3000 ms with 90% acetonitrile containing 5 mM ammonium acetate. Analytes were then eluted off the cartridge into the Agilent 6460 Triple Quad mass spectrometer with a 4500 ms elution step using 30% acetonitrile containing 5 mM ammonium acetate. The HILIC cartridge was then re-equilibrated by 90% acetonitrile containing 5 mM ammonium acetate for 500 ms. The 2HG was detected by an Agilent 6460 Triple Quad mass spectrometer in negative ion mode. Multiple reaction monitoring was used to quantify 2HG using the precursor ion and product ion at m/z 147.03 and 128.9, respectively. The percent activity of each sample is calculated by using DMSO and control compound treated references, and IC50 values are obtained using the GeneData Screener data analysis program.

TF1 IDH2R140Q = TF1 IDH2R140Q (Homo sapiens (Human), UniProt P48735, R140Q); test: TF1 IDH2 R140Q 2-HG cellular assay; format: cell-based; settings: extracellular 2HG, 24 hr treatment, IDH2 mutant-TF1 isogenic cell line
Description: The IDH2 mutant-TF1 isogenic cell line (ATCC CRL-20031G) used to test cellular inhibition is an erythroblast cell line that was isolated from the marrow of a patient with erythroleukemia with the IDH2R140Q mutation. These cells are maintained in RPMI-1640 (ATCC 30-2001) culture media with 10% FBS, 10 U/mL Penicillin-Streptomycin, and 2 ng/mL GM-CSF. Thirty thousand cells are plated in polystyrene tissue culture treated 384 well cell culture plates (PerkinElmer 6007680) (30,000 cells/well) approximately 2 hours before compound treatment. Cells are then treated with different concentrations of test compounds (5 μM to 0.3 pM) for 24 hr. Extracellular 2HG levels are measured from cell culture media. For analyte extraction, 30 μL of culture media is transferred to 120 μL 100% acetonitrile in a deep 384 well plate and mixed well, followed by 5 min centrifugation at 3700 rpm at room temperature. 100 μL of supernatant is transferred to a flat bottom 384 well plate. Samples are run on the Agilent RapidFire-Mass Spectrometry instrument to detect 2HG levels. The samples from each well were aspirated for 600 ms and loaded onto a HILIC solid-phase extraction cartridge (Agilent) followed by a wash step for 3000 ms with 90% acetonitrile containing 5 mM ammonium acetate. Analytes were then eluted off the cartridge into the Agilent 6460 Triple Quad mass spectrometer with a 4500 ms elution step using 30% acetonitrile containing 5 mM ammonium acetate. The HILIC cartridge was then re-equilibrated by 90% acetonitrile containing 5 mM ammonium acetate for 500 ms. The 2HG was detected by an Agilent 6460 Triple Quad mass spectrometer in negative ion mode. Multiple reaction monitoring was used to quantify 2HG using the precursor ion and product ion at m/z 147.03 and 128.9, respectively. The percent activity of each sample is calculated by using DMSO and control compound treated references, and IC50 values are obtained using the GeneData Screener data analysis program.

[2] = rcm bond
mIDH1R132H/S280F = mIDH1R132H/S280F (Homo sapiens (Human), UniProt O75874, R132H/S280F); test: mIDH1 R132H/S280F enzymatic activity assay (NADPH fluorescence); format: biochemical; settings: enzyme assay, 1 hour preincubation; read-out: IDH1R132H/S280F IC50
Description: (§1) The enzymatic activity of mIDH1R132H/S280F was assessed by measuring the fluorescence of the NADPH. The assay was performed in 384 well, white ProxiPlates (PerkinElmer, 6008280) in assay buffer containing 50 mM Hepes (Life Technologies, 15630080), 50 mM KCl (Teknova, P0327), 10 mM MgCl2 (Sigma-Aldrich, M1028), 1 mM DTT (Sigma-Aldrich, 43815), 0.02% BSA (Sigma-Aldrich, A3059) at pH 7.5. The final reaction volume was 10 μL. Stock solutions of the test compounds were prepared in 100% DMSO (Sigma, D2650) and serially diluted 1:3 using 100% DMSO. 50 nL of compound were then transferred to the assay plate using the Beckman Coulter ECHO 650 Acoustic Liquid Handler for a final DMSO concentration of 0.5%. 5 μL of a mIDH1R132H/S280F and NADPH (Santa Cruz, SC202725C) mixture were added to the assay plate for a final concentration of 2 nM and 10 PM, respectively. 5 μL of NADPH alone were added to negative control wells followed by a 1 hour preincubation at room temperature. 5 μL of alphaketoglutarate (Sigma-Aldrich, K1128) were added to the assay plate for a final concentration of 120 μM. Fluorescence of NADPH (excitation: 350 nm, emission 450 nm) was immediately measured kinetically for approximately 90 minutes using the BioTek Synergy Neo plate reader.

mIDH2R140Q = mIDH2R140Q (Homo sapiens (Human), UniProt P48735, R140Q); test: mIDH2 R140Q enzymatic activity assay (NADPH fluorescence); format: biochemical; settings: enzyme assay, 1 hour preincubation; read-out: IDH2R140Q IC50
Description: as §1, with “of mIDH2R140Q” for “of mIDH1R132H/S280F”, “a mIDH2R140Q” for “a mIDH1R132H/S280F”, “of 3” for “of 2”, “10 μM,” for “10 PM,”, “of 300” for “of 120”, “approximately 150” for “approximately 90”

Chain of TF1 IDH2R140Q (P48735 40-452 R140Q): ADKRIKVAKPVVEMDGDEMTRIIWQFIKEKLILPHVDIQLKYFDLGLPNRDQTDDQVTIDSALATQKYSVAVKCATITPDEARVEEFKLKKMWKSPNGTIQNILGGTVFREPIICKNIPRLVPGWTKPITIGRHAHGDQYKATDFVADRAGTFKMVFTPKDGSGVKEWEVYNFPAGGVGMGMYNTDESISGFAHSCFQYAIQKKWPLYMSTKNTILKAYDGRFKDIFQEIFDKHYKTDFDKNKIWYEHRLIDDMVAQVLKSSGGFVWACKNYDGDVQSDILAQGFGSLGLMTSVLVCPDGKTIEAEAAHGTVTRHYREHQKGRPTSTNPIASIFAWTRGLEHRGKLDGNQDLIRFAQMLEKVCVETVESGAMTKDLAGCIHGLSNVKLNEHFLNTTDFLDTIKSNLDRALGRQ
Chain of mIDH2R140Q (P48735 40-452 R140Q): as above
Chain of U87 IDH1R132H (O75874 whole entry R132H): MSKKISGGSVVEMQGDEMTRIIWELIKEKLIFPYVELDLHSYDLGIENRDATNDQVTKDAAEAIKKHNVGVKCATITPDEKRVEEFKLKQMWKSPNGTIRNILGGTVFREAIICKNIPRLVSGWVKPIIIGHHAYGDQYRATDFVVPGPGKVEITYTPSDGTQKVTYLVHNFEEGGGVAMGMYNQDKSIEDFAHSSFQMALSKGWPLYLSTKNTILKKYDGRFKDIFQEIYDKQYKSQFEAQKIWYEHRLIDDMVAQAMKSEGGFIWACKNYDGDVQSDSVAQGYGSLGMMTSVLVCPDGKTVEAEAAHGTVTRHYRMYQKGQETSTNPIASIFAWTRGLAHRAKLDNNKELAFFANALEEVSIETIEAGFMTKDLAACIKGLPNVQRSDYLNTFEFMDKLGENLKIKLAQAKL
Chain of mIDH1R132H/S280F (O75874 whole entry R132H/S280F): as the sequence (O75874 whole entry R132H) above, with S280F counted along it

| Compound | IC50 (U87 IDH1R132H) [nM] | IC50 (TF1 IDH2R140Q) [nM] | IC50 (mIDH1R132H/S280F) [nM] | IC50 (mIDH2R140Q) [nM] | other results |
| --- | --- | --- | --- | --- | --- |
| C[C@@H]1Nc2ncc3c(n2)N(C(=O)OC3)[C@@H](C)CC=CCOCC(N2CCN(C(=O)OC(C)(C)C)CC2)c2ccc1cc2 (stereo partly drawn) | – | – | – | – | ring closure, yield after HPLC ([1]; from C=CCOCC(c1ccc([C@H](C)Nc2ncc3c(n2)N([C@@H](C)CC=C)C(=O)OC3)cc1)N1CCN(C(=O)OC(C)(C)C)CC1, 18-membered ring, Hoveyda-Grubbs II (0.1 eq), 8.24 mM, 9.0 h): 27.6% |
| C=CC(=O)N1CCN(C2CCC/C=C/CN3C(=O)OCc4cnc(nc43)N[C@@H](C)c3ccc2cc3)CC1 (stereo partly drawn) [Example 6, (3S,Z)-5-(4-acryloylpiperazin-1-yl)-3-methyl-1^1,1^4-dihydro-1^2H-2-aza-1(7,1)-pyrimido[4,5-d][1,3]oxazina-4(1,4)-benzenacycloundecaphan-9-en-1^2-one] | 0.26 | 1720 | – | – | – |
| C[C@@H]1Nc2ncc3c(n2)N(CC=CCCCCC(=O)c2ccc1cc2)C(=O)OC3 | – | – | – | – | ring closure, isolated yield ([2]; from C=CCCCCC(=O)c1ccc([C@H](C)Nc2ncc3c(n2)N(CC=C)C(=O)OC3)cc1, 18-membered ring, Grubbs II (0.1 eq), DCM, 2.6 mM, 45.0 °C, 48.0 h): 36.5% |
| C=CC(=O)N1CCN(C2COCCCC[C@H](C)N3C(=O)OCc4cnc(nc43)N[C@@H](C)c3ccc2cc3)CC1 (stereo partly drawn) [Example 10, (3S,12S)-5-(4-acryloylpiperazin-1-yl)-3,12-dimethyl-1^1,1^4-dihydro-1^2H-7-oxa-2-aza-1(7,1)-pyrimido[4,5-d][1,3]oxazina-4(1,4)-benzenacyclododecaphan-1^2-one] | 0.31 | 1220 | 83 | 4990 | – |
| C[C@@H]1Nc2ncc3c(n2)N(CC=CCCCC(N2CCN(C(=O)OC(C)(C)C)CC2)c2ccc1cc2)C(=O)OC3 (stereo partly drawn) | – | – | – | – | ring closure, yield after HPLC ([1]; from C=CCCCC(c1ccc([C@H](C)Nc2ncc3c(n2)N(CC=C)C(=O)OC3)cc1)N1CCN(C(=O)OC(C)(C)C)CC1, 17-membered ring, Hoveyda-Grubbs II (2 x 0.1 eq), 8.67 mM, 15.0 h): 21% |
| C[C@@H]1Nc2ncc3c(n2)N(CCCCC=CCCC(N2CCN(C(=O)OC(C)(C)C)CC2)c2ccc1cc2)C(=O)OC3 (stereo partly drawn) | – | – | – | – | ring closure, isolated yield ([2]; from C=CCCCCN1C(=O)OCc2cnc(N[C@@H](C)c3ccc(C(CCC=C)N4CCN(C(=O)OC(C)(C)C)CC4)cc3)nc21, 19-membered ring, Hoveyda-Grubbs II (0.21 eq), DCE, 16.6 mM, 60.0 °C, 9.0 h): 49.2% |
| C[C@@H]1Nc2ncc3c(n2)N(CC=CCCCC(=O)c2ccc1cc2)C(=O)OC3 | – | – | – | – | ring closure, isolated yield ([2]; from C=CCCCC(=O)c1ccc([C@H](C)Nc2ncc3c(n2)N(CC=C)C(=O)OC3)cc1, 17-membered ring, Grubbs II (2 portions), DCM, 2.04 mM, 40.0 °C, 84.0 h): 52% |
| C=CC(=O)N1CCN(C2CCCCCC[C@H](C)N3C(=O)OCc4cnc(nc43)N[C@@H](C)c3ccc2cc3)CC1 (stereo partly drawn) [Example 9, (3S,12S)-5-(4-acryloylpiperazin-1-yl)-3,12-dimethyl-1^1,1^4-dihydro-1^2H-2-aza-1(7,1)-pyrimido[4,5-d][1,3]oxazina-4(1,4)-benzenacyclododecaphan-1^2-one] | 0.14 | 504 | 94 | 1490 | – |

The next lines start with results.

| IC50 (U87 IDH1R132H) [nM] | IC50 (TF1 IDH2R140Q) [nM] | IC50 (mIDH1R132H/S280F) [nM] | IC50 (mIDH2R140Q) [nM] | Compound | other results |
| --- | --- | --- | --- | --- | --- |
| 0.32 | 269 | 103 | 1320 | C=CC(=O)N1CCN(C2CCCCCCCCN3C(=O)OCc4cnc(nc43)N[C@@H](C)c3ccc2cc3)CC1 (stereo partly drawn) [Example 1, (3S)-5-(4-acryloylpiperazin-1-yl)-3-methyl-1^1,1^4-dihydro-1^2H-2-aza-1(7,1)-pyrimido[4,5-d][1,3]oxazina-4(1,4)-benzenacyclotridecaphan-1^2-one] | – |
| 0.31 | 342 | 284 | 1840 | C=CC(=O)N1CCN(C2CC/C=C\CCCCN3C(=O)OCc4cnc(nc43)N[C@@H](C)c3ccc2cc3)CC1 (stereo partly drawn) [Example 2, (3S,Z)-5-(4-acryloylpiperazin-1-yl)-3-methyl-1^1,1^4-dihydro-1^2H-2-aza-1(7,1)-pyrimido[4,5-d][1,3]oxazina-4(1,4)-benzenacyclotridecaphan-8-en-1^2-one] | – |
| 0.24 | 123 | 295 | 1730 | C=CC(=O)N1CCN(C2CCCCCCN3C(=O)OCc4cnc(nc43)N[C@@H](C)c3ccc2cc3)CC1 (single isomer, unassigned) [Example 7] | – |
| 0.1 | 215 | – | – | C=CC(=O)N1CCN(C2CCCC/C=C/CCN3C(=O)OCc4cnc(nc43)N[C@@H](C)c3ccc2cc3)CC1 (stereo partly drawn) [Example 5, (3S,E)-5-(4-acryloylpiperazin-1-yl)-3-methyl-1^1,1^4-dihydro-1^2H-2-aza-1(7,1)-pyrimido[4,5-d][1,3]oxazina-4(1,4)-benzenacyclotridecaphan-10-en-12-one] | – |
| 0.19 | 351 | 922 | 4730 | C=CC(=O)N1CCN(C2CCCCCCN3C(=O)OCc4cnc(nc43)N[C@@H](C)c3ccc2cc3)CC1 (single isomer, unassigned) [Example 8] | – |
